Laboratory results from patent US6355799B1, “Substituted benzene compounds, process for their preparation, and herbicidal and defoliant compositions containing them” (ISK Americas Incorporated, priority 1997, dated 2002).

Key:
Assay type in all cases: in vivo
[1] = tested on: field corn (Zea mays L., var. Dekalb 535, CORN); test: Pre-emerge test, crop safety; conditions: rated 14 days after application, 0 = no damage, 100 = complete death
Method in brief: (§1)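 Applied at 15–1000 g ai/ha from acetone in 187 l/ha spray volume. Post-emergence applications included 0.25% v/v non-ionic surfactant and reached plants sown 8–21 days before. Pre-emergence applications were incorporated by surface watering. Efficacy or crop damage was rated on a 0–100 scale after 14 days.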

[2] = tested on: upland rice (Oryza sp., var. Tebonnet, RICE); test: Pre-emerge test, crop safety; conditions: rated 14 days after application, 0 = no damage, 100 = complete death
Method in brief: as §1

[3] = tested on: johnsongrass (Sorghum halepense, SORHA); test: Post-emerge test, greenhouse herbicide activity screening; conditions: post-emerge, 14 days after application, rating scale 0-100
Method in brief: (§2)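 Compounds in acetone were track-sprayed at 15-1000 g ai/ha (187 l/ha) on sandy loam pots: pre-emerge one day after seeding, post-emerge at 2-3 leaf stage with 0.25% v/v non-ionic surfactant. Phytotoxicity was rated 14 days later on a 0 (no damage) to 100 (complete death) scale.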

[4] = tested on: sicklepod (Cassia obtusifolia, CASOB); test: as above; conditions: post-emerge, 14 days after application, rating scale 0-100
Method in brief: as §2

[5] = tested on: barnyardgrass (Echinochloa crus-galli, ECHCG); test: as above; conditions: post-emerge, 14 days after application, rating scale 0-100
Method in brief: as §2

[6] = tested on: redroot pigweed (Amaranthus retroflexus, AMARE); test: as above; conditions: post-emerge, 14 days after application, rating scale 0-100
Method in brief: as §2

[7] = tested on: large crabgrass (Digitaria sanguinalis, DIGSA); test: as above; conditions: post-emerge, 14 days after application, rating scale 0-100
Method in brief: as §2

[8] = tested on: green foxtail (Setaria viridis, SETVI); test: as above; conditions: post-emerge, 14 days after application, rating scale 0-100
Method in brief: as §2

[9] = tested on: lambsquarters (Chenopodium album, CHEAL); test: as above; conditions: post-emerge, 14 days after application, rating scale 0-100
Method in brief: as §2

[10] = tested on: common ragweed (Ambrosia artemisizfolia L., AMBEL); test: as above; conditions: post-emerge, 14 days after application, rating scale 0-100
Method in brief: as §2

[11] = tested on: ivyleaf morningglory (Ipomoea hederacea, IPOHE); test: as above; conditions: post-emerge, 14 days after application, rating scale 0-100
Method in brief: as §2

[12] = tested on: velvetleaf (Abutilon theophrasti, ABUTH); test: as above; conditions: post-emerge, 14 days after application, rating scale 0-100
Method in brief: as §2

[13] = tested on: redroot pigweed (Amaranthus retroflexus, AMARE); test: Pre-emerge test, greenhouse herbicide activity screening; conditions: rated 14 days after application, 0 = no damage, 100 = complete death
Method in brief: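 Visual ratings on a 0-100 scale (0 no damage, 100 all plants dead) were taken at 14 days after treatment. Rates of 15-1000 g ai/ha in acetone, 187 l/ha, were sprayed onto soil one day after planting (pre-emerge) or onto 2-3 leaf plants with 0.25% v/v surfactant (post-emerge).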

[14] = tested on: field corn (Zea mays L., var. Dekalb 535, CORN); test: Post-emerge test, crop safety; conditions: post-emerge, 14 days after application, rating scale 0-100
Method in brief: (§3)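 Herbicidal damage is scored 0 (none) to 100 (complete plant death) two weeks after a simulated field spray. Rates span 15–1000 g ai/ha, delivered in acetone at 187 l/ha. For post-emergence treatments, plants have 2–3 leaves and the spray carries 0.25% v/v non-ionic surfactant.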

[15] = tested on: upland rice (Oryza sp., var. Tebonnet, RICE); test: Post-emerge test, crop safety; conditions: post-emerge, 14 days after application, rating scale 0-100
Method in brief: as §3

[16] = tested on: johnsongrass (Sorghum halepense, SORHA); test: Pre-emerge test, greenhouse herbicide activity screening; conditions: rated 14 days after application, 0 = no damage, 100 = complete death
Method in brief: as §3

[17] = tested on: sicklepod (Cassia obtusifolia, CASOB); test: as above; conditions: rated 14 days after application, 0 = no damage, 100 = complete death
Method in brief: as §3

[18] = tested on: barnyardgrass (Echinochloa crus-galli, ECHCG); test: as above; conditions: rated 14 days after application, 0 = no damage, 100 = complete death
Method in brief: as §3

[19] = tested on: large crabgrass (Digitaria sanguinalis, DIGSA); test: as above; conditions: rated 14 days after application, 0 = no damage, 100 = complete death
Method in brief: as §3

[20] = tested on: green foxtail (Setaria viridis, SETVI); test: as above; conditions: rated 14 days after application, 0 = no damage, 100 = complete death
Method in brief: as §3

[21] = tested on: lambsquarters (Chenopodium album, CHEAL); test: as above; conditions: rated 14 days after application, 0 = no damage, 100 = complete death
Method in brief: as §3

[22] = tested on: common ragweed (Ambrosia artemisizfolia L., AMBEL); test: as above; conditions: rated 14 days after application, 0 = no damage, 100 = complete death
Method in brief: as §3

[23] = tested on: ivyleaf morningglory (Ipomoea hederacea, IPOHE); test: as above; conditions: rated 14 days after application, 0 = no damage, 100 = complete death
Method in brief: as §3

[24] = tested on: velvetleaf (Abutilon theophrasti, ABUTH); test: as above; conditions: rated 14 days after application, 0 = no damage, 100 = complete death
Method in brief: as §3

COc1ccc(C(=O)Nc2c(OC)c(Cl)cc(F)c2-n2c(=O)cc(C(F)(F)F)n(C)c2=O)cc1 [2-63]
60: Pre-emerge phytotoxicity rating (0-100), crop damage, CORN ([1]; 63 g ai/ha)
90: Pre-emerge Herbicidal Activity, phytotoxicity rating (0-100), SORHA ([16]; 63 g ai/ha)
99: phytotoxicity rating CHEAL ([9]; 63 g ai/ha)
100: Pre-emerge phytotoxicity rating (0-100), crop damage, CORN ([1]; 250 g ai/ha) | Pre-emerge phytotoxicity rating (0-100), crop damage, RICE ([2]; 250 g ai/ha) | phytotoxicity rating SORHA ([3]; 250 g ai/ha) | phytotoxicity rating CASOB ([4]; 63 g ai/ha) | phytotoxicity rating CASOB ([4]; 250 g ai/ha) | phytotoxicity rating ECHCG ([5]; 250 g ai/ha) | phytotoxicity rating AMARE ([6]; 63 g ai/ha) | phytotoxicity rating AMARE ([6]; 250 g ai/ha) | phytotoxicity rating CHEAL ([9]; 250 g ai/ha) | phytotoxicity rating AMBEL ([10]; 250 g ai/ha) | phytotoxicity rating IPOHE ([11]; 63 g ai/ha) | phytotoxicity rating IPOHE ([11]; 250 g ai/ha) | phytotoxicity rating ABUTH ([12]; 63 g ai/ha) | phytotoxicity rating ABUTH ([12]; 250 g ai/ha) | Pre-emerge Herbicidal Activity, phytotoxicity rating (0-100), AMARE ([13]; 63 g ai/ha) | Pre-emerge Herbicidal Activity, phytotoxicity rating (0-100), AMARE ([13]; 250 g ai/ha) | Pre-emerge Herbicidal Activity, phytotoxicity rating (0-100), SORHA ([16]; 250 g ai/ha) | Pre-emerge Herbicidal Activity, phytotoxicity rating (0-100), CASOB ([17]; 63 g ai/ha) | Pre-emerge Herbicidal Activity, phytotoxicity rating (0-100), CASOB ([17]; 250 g ai/ha) | Pre-emerge Herbicidal Activity, phytotoxicity rating (0-100), ECHCG ([18]; 250 g ai/ha) | Pre-emerge Herbicidal Activity, phytotoxicity rating (0-100), DIGSA ([19]; 63 g ai/ha) | Pre-emerge Herbicidal Activity, phytotoxicity rating (0-100), DIGSA ([19]; 250 g ai/ha) | Pre-emerge Herbicidal Activity, phytotoxicity rating (0-100), SETVI ([20]; 63 g ai/ha) | Pre-emerge Herbicidal Activity, phytotoxicity rating (0-100), SETVI ([20]; 250 g ai/ha) | Pre-emerge Herbicidal Activity, phytotoxicity rating (0-100), CHEAL ([21]; 63 g ai/ha) | Pre-emerge Herbicidal Activity, phytotoxicity rating (0-100), CHEAL ([21]; 250 g ai/ha) | Pre-emerge Herbicidal Activity, phytotoxicity rating (0-100), AMBEL ([22]; 63 g ai/ha) | Pre-emerge Herbicidal Activity, phytotoxicity rating (0-100), AMBEL ([22]; 250 g ai/ha) | Pre-emerge Herbicidal Activity, phytotoxicity rating (0-100), IPOHE ([23]; 63 g ai/ha) | Pre-emerge Herbicidal Activity, phytotoxicity rating (0-100), IPOHE ([23]; 250 g ai/ha) | Pre-emerge Herbicidal Activity, phytotoxicity rating (0-100), ABUTH ([24]; 63 g ai/ha) | Pre-emerge Herbicidal Activity, phytotoxicity rating (0-100), ABUTH ([24]; 250 g ai/ha)
70: phytotoxicity rating DIGSA ([7]; 250 g ai/ha) | phytotoxicity rating RICE ([15]; 63 g ai/ha)
20: phytotoxicity rating SORHA ([3]; 63 g ai/ha)
95: Pre-emerge phytotoxicity rating (0-100), crop damage, RICE ([2]; 63 g ai/ha) | phytotoxicity rating SETVI ([8]; 250 g ai/ha) | phytotoxicity rating CORN ([14]; 250 g ai/ha) | phytotoxicity rating RICE ([15]; 250 g ai/ha) | Pre-emerge Herbicidal Activity, phytotoxicity rating (0-100), ECHCG ([18]; 63 g ai/ha)
50: phytotoxicity rating SETVI ([8]; 63 g ai/ha) | phytotoxicity rating CORN ([14]; 63 g ai/ha)
80: phytotoxicity rating AMBEL ([10]; 63 g ai/ha)
10: phytotoxicity rating ECHCG ([5]; 63 g ai/ha)
0: phytotoxicity rating DIGSA ([7]; 63 g ai/ha)

COc1c(Cl)cc(F)c(-n2c(=O)cc(C(F)(F)F)n(C)c2=O)c1NC(=O)c1ccc(I)cc1 [2-66]
99: Pre-emerge Herbicidal Activity, phytotoxicity rating (0-100), DIGSA ([19]; 250 g ai/ha)
95: Pre-emerge Herbicidal Activity, phytotoxicity rating (0-100), SORHA ([16]; 250 g ai/ha) | Pre-emerge Herbicidal Activity, phytotoxicity rating (0-100), SETVI ([20]; 63 g ai/ha)
80: phytotoxicity rating SETVI ([8]; 250 g ai/ha) | Pre-emerge Herbicidal Activity, phytotoxicity rating (0-100), IPOHE ([23]; 250 g ai/ha)
20: phytotoxicity rating DIGSA ([7]; 250 g ai/ha) | Pre-emerge Herbicidal Activity, phytotoxicity rating (0-100), SORHA ([16]; 63 g ai/ha)
100: phytotoxicity rating CASOB ([4]; 63 g ai/ha) | phytotoxicity rating AMARE ([6]; 63 g ai/ha) | phytotoxicity rating AMARE ([6]; 250 g ai/ha) | phytotoxicity rating CHEAL ([9]; 63 g ai/ha) | phytotoxicity rating CHEAL ([9]; 250 g ai/ha) | phytotoxicity rating AMBEL ([10]; 63 g ai/ha) | phytotoxicity rating IPOHE ([11]; 63 g ai/ha) | phytotoxicity rating ABUTH ([12]; 63 g ai/ha) | phytotoxicity rating ABUTH ([12]; 250 g ai/ha) | Pre-emerge Herbicidal Activity, phytotoxicity rating (0-100), AMARE ([13]; 63 g ai/ha) | Pre-emerge Herbicidal Activity, phytotoxicity rating (0-100), AMARE ([13]; 250 g ai/ha) | Pre-emerge Herbicidal Activity, phytotoxicity rating (0-100), SETVI ([20]; 250 g ai/ha) | Pre-emerge Herbicidal Activity, phytotoxicity rating (0-100), CHEAL ([21]; 63 g ai/ha) | Pre-emerge Herbicidal Activity, phytotoxicity rating (0-100), CHEAL ([21]; 250 g ai/ha) | Pre-emerge Herbicidal Activity, phytotoxicity rating (0-100), ABUTH ([24]; 63 g ai/ha) | Pre-emerge Herbicidal Activity, phytotoxicity rating (0-100), ABUTH ([24]; 250 g ai/ha)
40: Pre-emerge Herbicidal Activity, phytotoxicity rating (0-100), IPOHE ([23]; 63 g ai/ha)
90: phytotoxicity rating SETVI ([8]; 63 g ai/ha) | phytotoxicity rating IPOHE ([11]; 250 g ai/ha) | phytotoxicity rating RICE ([15]; 250 g ai/ha) | Pre-emerge Herbicidal Activity, phytotoxicity rating (0-100), CASOB ([17]; 250 g ai/ha)
0: Pre-emerge phytotoxicity rating (0-100), crop damage, CORN ([1]; 63 g ai/ha) | Pre-emerge Herbicidal Activity, phytotoxicity rating (0-100), ECHCG ([18]; 63 g ai/ha) | Pre-emerge Herbicidal Activity, phytotoxicity rating (0-100), AMBEL ([22]; 63 g ai/ha)
75: phytotoxicity rating AMBEL ([10]; 250 g ai/ha)
50: phytotoxicity rating SORHA ([3]; 250 g ai/ha) | phytotoxicity rating ECHCG ([5]; 250 g ai/ha) | phytotoxicity rating RICE ([15]; 63 g ai/ha)
10: Pre-emerge phytotoxicity rating (0-100), crop damage, RICE ([2]; 63 g ai/ha) | phytotoxicity rating SORHA ([3]; 63 g ai/ha) | phytotoxicity rating DIGSA ([7]; 63 g ai/ha)
35: Pre-emerge Herbicidal Activity, phytotoxicity rating (0-100), CASOB ([17]; 63 g ai/ha)
70: phytotoxicity rating CASOB ([4]; 250 g ai/ha) | phytotoxicity rating ECHCG ([5]; 63 g ai/ha) | phytotoxicity rating CORN ([14]; 250 g ai/ha)
15: Pre-emerge phytotoxicity rating (0-100), crop damage, CORN ([1]; 250 g ai/ha) | phytotoxicity rating CORN ([14]; 63 g ai/ha)
60: Pre-emerge phytotoxicity rating (0-100), crop damage, RICE ([2]; 250 g ai/ha) | Pre-emerge Herbicidal Activity, phytotoxicity rating (0-100), ECHCG ([18]; 250 g ai/ha) | Pre-emerge Herbicidal Activity, phytotoxicity rating (0-100), DIGSA ([19]; 63 g ai/ha) | Pre-emerge Herbicidal Activity, phytotoxicity rating (0-100), AMBEL ([22]; 250 g ai/ha)
